Assay results published in paper PMC5546919 (The Journal of organic chemistry, 2010).

Key:
Format in all cases: biochemical
[1] = biological target: T1, human 26S proteasome, trypsin-like (T-L) activity (Homo sapiens, UniProt Q99436); assay: Proteasome-Glo luminogenic assay, T-L substrate
T1 sequence (Q99436 44-277): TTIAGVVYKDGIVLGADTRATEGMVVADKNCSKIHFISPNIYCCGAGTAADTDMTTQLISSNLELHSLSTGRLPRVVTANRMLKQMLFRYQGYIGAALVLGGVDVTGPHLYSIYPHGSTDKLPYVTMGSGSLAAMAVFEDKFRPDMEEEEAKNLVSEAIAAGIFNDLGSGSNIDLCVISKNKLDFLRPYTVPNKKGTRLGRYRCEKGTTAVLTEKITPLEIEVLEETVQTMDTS

[2] = biological target: T2, human 20S proteasome, trypsin-like (T-L) activity (Homo sapiens, UniProt Q99436); assay: Proteasome-Glo luminogenic assay, T-L substrate
T2 sequence (Q99436 44-277): T1 sequence (Q99436 44-277)

[3] = biological target: T3, human 26S proteasome, caspase-like (C-L) activity (Homo sapiens, UniProt P28072); assay: Proteasome-Glo luminogenic assay, C-L substrate
T3 sequence (P28072 35-239): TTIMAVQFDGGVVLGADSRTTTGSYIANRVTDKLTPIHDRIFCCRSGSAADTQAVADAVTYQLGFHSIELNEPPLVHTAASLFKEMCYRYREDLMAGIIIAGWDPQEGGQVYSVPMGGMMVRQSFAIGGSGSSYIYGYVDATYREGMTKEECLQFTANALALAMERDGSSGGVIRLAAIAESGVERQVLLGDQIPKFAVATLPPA

[4] = biological target: T4, human 20S proteasome, caspase-like (C-L) activity (Homo sapiens, UniProt P28072); assay: Proteasome-Glo luminogenic assay, C-L substrate
T4 sequence (P28072 35-239): T3 sequence (P28072 35-239)

[5] = biological target: T5, human 26S proteasome, chymotrypsin-like (CT-L) activity (Homo sapiens, UniProt P28074); assay: Proteasome-Glo luminogenic assay, CT-L substrate
T5 sequence (P28074 60-263): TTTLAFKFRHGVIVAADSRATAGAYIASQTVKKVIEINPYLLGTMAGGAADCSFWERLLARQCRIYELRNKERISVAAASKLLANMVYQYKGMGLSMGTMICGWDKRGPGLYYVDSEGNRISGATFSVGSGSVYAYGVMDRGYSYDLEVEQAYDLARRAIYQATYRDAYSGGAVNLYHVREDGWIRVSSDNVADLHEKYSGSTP

[6] = biological target: T6, human 20S proteasome, chymotrypsin-like (CT-L) activity (Homo sapiens, UniProt P28074); assay: Proteasome-Glo luminogenic assay, CT-L substrate
T6 sequence (P28074 60-263): T5 sequence (P28074 60-263)

SMILES | IC50 [1] | IC50 [2] | IC50 [3] | IC50 [4] | IC50 [5] | IC50 [6]
C[C@@]12OC(=O)[C@]1([C@@H](O)[C@@H]1C=CCCC1)NC(=O)[C@@H]2CCCCl [compound 54, (−)-homosalino] | 125 ± 30 nM | 118 ± 28 nM | 188 ± 3 nM | 144 ± 12 nM | – | –
C[C@@]12OC(=O)[C@]1([C@@H](O)[C@@H]1C=CCCC1)NC(=O)[C@@H]2CCCl [1a, (−)-salino A] | 37 ± 16 nM | 39 ± 7 nM | 156 ± 18 nM | 111 ± 22 nM | – | –
CCCCCCC1C(=O)NC2(C(O)C3C=CCCC3)C(=O)OC12C (racemic) [(±)-2, rac-cinnabaramide A] | – | 260 ± 29 nM | – | 125 ± 12 nM | 2.2 ± 0.04 nM | 2.8 ± 0.6 nM
